Data published in article PMC5844225 (Journal of medicinal chemistry, 2016).

How the values were obtained:
[1] = tested on: S. mansoni schistosomula; experiment: Automated ex vivo larval S. mansoni HCS assay; format: cell-based, Schistosoma mansoni; conditions: 48 h exposure
[2] = tested on: SmTGR; conditions: cited from earlier work

## Cc1noc(/C=C/c2ccccn2)c1[N+](=O)[O-] [Compound 3, 2-[2-(3-methyl-4-nitro-5-isoxazolyl)vinyl]pyridine]
[1]
  schistosomula phenotype: internal disruption of larvae

## O=S(=O)(Cc1ccccc1)c1nc2ccccc2s1 [Compound 4, 2-(benzylsulfonyl)-1,3-benzothiazole]
[1]
  schistosomula phenotype: internal disruption of larvae

## Cc1c(-c2cnccn2)ssc1=S [OLT, oltipraz]
[2]
  SmTGR inhibition mode: noncompetitive inhibitor
